For experiment [1], the target named is T1, SALL4 (Homo sapiens, UniProt Q96SW2+Q9UJQ4).
T1 construct: host or cells: human iPS cells (CRBN wild-type and CRBN knock-out)
Nature of the experiment: SALL4 protein level in human iPS cells, immunoblot. Conditions: 16 hours. In kind it is cell-based. How it is done: Immunoblot analysis of whole cell lysates of CRBN wild-type (WT) and CRBN knock-out (−/−) human iPS cells was performed. Cells were treated with DMSO vehicle control (−) or thalidomide (Thal) at indicated concentrations for 16 hours (n=4, biological replicates).
Immunoblot analysis of whole cell lysates of human iPS cells treated with DMSO (−) or Thal (+) in the presence or absence of 1 μM MLN4924 or 10 μM MG132 for 6 hours were performed (n=2, biological replicates).
Human iPS cell lines ACS-1019 and ACS-1011 (derived from healthy donors) were obtained from ATCC. The hiPSCs were maintained in mTESR-1 medium (Stem Cell Technologies) in cell culture plates coated with a thin layer of Matrigel (BD Biosciences) incubated at 37° C. in a humidified 5% CO2 incubator according to the manufacturer's instruction. Cells were split through mechanic passaging with a glass pipet and enzymatically digestion with Dispase or Accutase every 2 to 3 days.
Human iPSCs, ACS-1019 was transduced with lentiviral vectors expressing CRISPR-Cas9 and small guide RNA targeting cereblon for 4 days. The resulting colonies were amplified and screened for cereblon knockout by immunoblot analysis with anti-CRBN65 antibody (Celgene).

The test system of experiment [2] is SALL4 binding to cereblon. In kind it is cell-based, human. How it is done: Binding of full length SALL4 to cereblon in cells was then tested by co-immunoprecipitation (see FIG. 3). HA-tagged WT, G416A, or G600A SALL4 was immunoprecipitated from cells, and the level of co-purifying cereblon was assessed by western blot. Briefly, a Lenti-x 293 cell line with a CRISPR-cas9 knock-out of cereblon and stable expression of HA-tagged SALL4 or SALL4 mutants was transfected with either GST-cereblon or empty vector. […] The amount of co-purifying GST-cereblon was then assessed by western blot.

Experiment [3] has as its target Ikaros (Homo sapiens, UniProt Q13422+Q96SW2). The experiment in a line: Degradation of Ikaros (data not shown).
The subject of experiment [4] is SALL4 mRNA. Nature of the experiment: In situ hybridization for SALL4 RNA in rabbit embryo limb buds. Type of experiment: in vivo. Conditions: treated vs untreated. How it is done: A fully automated SALL4 ISH assay was performed on Leica BOND RX IHC & ISH stainer with the BOND Research Detection System (Leica, Cat. No. DS9455). Formalin fixed paraffin embedded (FFPE) rabbit embryos were sectioned at four micron thickness, baked at 60° C. for 1 hour and then deparaffinized in Dewax solution at 72° C. Antigen retrieval was performed in Epitope Retrieval 2 (ER2, pH 9.0) for 15 min at 95° C. Custom-designed rabbit SALL4 target probe was applied on the slides and incubated at 42° C. for 2 hours. SALL4 signal was then amplified with the RNAscope LS Multiplex Fluorescent Reagent Kit (ACD, Cat. No. 322800) using the BOND RX default ACD ISH protocol. SALL4 signal was detected with Opal TSA fluorophore 570 (PerkinElmer, Cat. No. FP1488001KT) at a 1:1500 dilution for a 30 min incubation. Slides were then coverslipped manually using ProLong Diamond Antifade Mountant with DAPI (Life Technology, Catalog No. P36966). After whole slide scan at 4× magnification was completed, 40× magnification images were acquired using Perkin Elmer Vectra 3.0 multispectral image platform.

Experiment [5] deals with SALL4 binding to cereblon. The experiment in a line: Co-immunoprecipitation of CRBN and SALL4 variants in lenti-X-293 cells expressing GST-CRBN. In kind it is cell-based, human. As to conditions: 40 μM thalidomide, 8 hours, 1 μM MLN4924. How it is done: All cells were treated with 1 μM MLN4924, and either 40 μM thalidomide (+) or DMSO vehicle control (−) as indicated for 8 hours (n=2 biological replicates).
Lenti-X-293 cells were cotransfected with pDEST27-CRBN, which encodes GST-CRBN, and pLOC empty vector (Thermo Fisher), which contains a blasticidin resistant gene. Two days after transfection, cells were trypsinized and seeded into 96-well plates through limiting dilution. After selectin with blasticidin (20 μg/mL) for 2 weeks, single clones were picked, expanded and screened for overexpression of GST-CRBN via immunoblot analysis with anti-CRBN65 antibody. Next, lenti-X-293 cells stably expressing GST-CRBN Human were infected with lentiviruses expressing SALL4 wild-type and variants to generate lenti-x-293 cells stably expressing GST-CRBN and SALL4. Then, cells were treated with DMSO or 40 μM thalidomide for 8 hours in the presence of 1 μM MLN4924, and lysed in Buffer B [50 mM Tris (pH 7.4), 150 mM NaCl, 0.5% NP-40, 10% glycerol, 1× Complete Ultra protease inhibitor (Roche), and 1× PhosphoSTOP (Roche)]. […] After washing the anti-HA resin with Buffer B for 6 times, anti-HA immunoprecipitates were eluted by boiling in 2×LDS loading buffer at 90° C. for 5 minutes, and then subjected to immunoblot analysis.

Entries after “also recorded” stand apart in the source; their conditions may differ.

Results on 1 compound are retold here after US12590953B2, “Methods for screening cereblon modifying compounds” (CELGENE CORPORATION, priority 2018, dated 2026).

T1 sequence (Q9UJQ4 whole entry): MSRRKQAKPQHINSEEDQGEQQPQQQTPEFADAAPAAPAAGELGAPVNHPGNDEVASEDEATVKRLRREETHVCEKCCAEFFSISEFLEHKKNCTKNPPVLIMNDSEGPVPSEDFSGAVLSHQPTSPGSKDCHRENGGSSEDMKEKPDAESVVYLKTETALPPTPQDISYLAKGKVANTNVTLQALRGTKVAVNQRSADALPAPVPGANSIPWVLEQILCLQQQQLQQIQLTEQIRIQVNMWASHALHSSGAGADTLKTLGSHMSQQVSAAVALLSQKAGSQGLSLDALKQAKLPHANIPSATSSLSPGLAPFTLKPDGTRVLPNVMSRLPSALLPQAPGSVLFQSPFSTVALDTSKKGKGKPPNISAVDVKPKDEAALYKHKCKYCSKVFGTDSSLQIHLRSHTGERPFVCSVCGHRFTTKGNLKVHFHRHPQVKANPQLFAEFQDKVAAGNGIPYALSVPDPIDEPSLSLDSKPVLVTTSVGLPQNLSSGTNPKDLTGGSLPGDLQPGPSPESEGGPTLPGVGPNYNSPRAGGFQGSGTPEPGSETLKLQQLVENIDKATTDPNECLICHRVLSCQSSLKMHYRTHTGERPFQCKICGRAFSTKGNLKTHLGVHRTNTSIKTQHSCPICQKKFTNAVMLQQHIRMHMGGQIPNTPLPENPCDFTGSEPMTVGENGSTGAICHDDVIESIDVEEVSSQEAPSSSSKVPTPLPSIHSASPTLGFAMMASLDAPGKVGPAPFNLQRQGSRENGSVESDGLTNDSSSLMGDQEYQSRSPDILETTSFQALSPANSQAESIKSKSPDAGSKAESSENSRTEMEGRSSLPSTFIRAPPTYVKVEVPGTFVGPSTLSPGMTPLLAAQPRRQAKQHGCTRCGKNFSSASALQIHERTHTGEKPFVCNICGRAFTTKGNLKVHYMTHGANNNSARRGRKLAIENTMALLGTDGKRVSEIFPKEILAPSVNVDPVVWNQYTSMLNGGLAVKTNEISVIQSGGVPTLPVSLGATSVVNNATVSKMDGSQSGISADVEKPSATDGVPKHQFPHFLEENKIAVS
T1 sequence (Q96SW2 whole entry): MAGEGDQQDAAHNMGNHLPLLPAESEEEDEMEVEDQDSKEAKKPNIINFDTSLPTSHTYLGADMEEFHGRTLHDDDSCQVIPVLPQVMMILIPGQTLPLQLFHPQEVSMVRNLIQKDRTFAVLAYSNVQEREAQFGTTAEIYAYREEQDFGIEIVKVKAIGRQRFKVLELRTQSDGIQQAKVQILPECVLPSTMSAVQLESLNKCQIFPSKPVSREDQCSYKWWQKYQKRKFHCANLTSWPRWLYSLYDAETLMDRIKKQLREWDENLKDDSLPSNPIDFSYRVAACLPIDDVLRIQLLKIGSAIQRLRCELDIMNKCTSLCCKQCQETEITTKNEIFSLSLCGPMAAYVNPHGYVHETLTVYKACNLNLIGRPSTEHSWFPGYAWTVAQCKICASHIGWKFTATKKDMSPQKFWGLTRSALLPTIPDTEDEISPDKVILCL
T1 sequence (Q16531 whole entry partner): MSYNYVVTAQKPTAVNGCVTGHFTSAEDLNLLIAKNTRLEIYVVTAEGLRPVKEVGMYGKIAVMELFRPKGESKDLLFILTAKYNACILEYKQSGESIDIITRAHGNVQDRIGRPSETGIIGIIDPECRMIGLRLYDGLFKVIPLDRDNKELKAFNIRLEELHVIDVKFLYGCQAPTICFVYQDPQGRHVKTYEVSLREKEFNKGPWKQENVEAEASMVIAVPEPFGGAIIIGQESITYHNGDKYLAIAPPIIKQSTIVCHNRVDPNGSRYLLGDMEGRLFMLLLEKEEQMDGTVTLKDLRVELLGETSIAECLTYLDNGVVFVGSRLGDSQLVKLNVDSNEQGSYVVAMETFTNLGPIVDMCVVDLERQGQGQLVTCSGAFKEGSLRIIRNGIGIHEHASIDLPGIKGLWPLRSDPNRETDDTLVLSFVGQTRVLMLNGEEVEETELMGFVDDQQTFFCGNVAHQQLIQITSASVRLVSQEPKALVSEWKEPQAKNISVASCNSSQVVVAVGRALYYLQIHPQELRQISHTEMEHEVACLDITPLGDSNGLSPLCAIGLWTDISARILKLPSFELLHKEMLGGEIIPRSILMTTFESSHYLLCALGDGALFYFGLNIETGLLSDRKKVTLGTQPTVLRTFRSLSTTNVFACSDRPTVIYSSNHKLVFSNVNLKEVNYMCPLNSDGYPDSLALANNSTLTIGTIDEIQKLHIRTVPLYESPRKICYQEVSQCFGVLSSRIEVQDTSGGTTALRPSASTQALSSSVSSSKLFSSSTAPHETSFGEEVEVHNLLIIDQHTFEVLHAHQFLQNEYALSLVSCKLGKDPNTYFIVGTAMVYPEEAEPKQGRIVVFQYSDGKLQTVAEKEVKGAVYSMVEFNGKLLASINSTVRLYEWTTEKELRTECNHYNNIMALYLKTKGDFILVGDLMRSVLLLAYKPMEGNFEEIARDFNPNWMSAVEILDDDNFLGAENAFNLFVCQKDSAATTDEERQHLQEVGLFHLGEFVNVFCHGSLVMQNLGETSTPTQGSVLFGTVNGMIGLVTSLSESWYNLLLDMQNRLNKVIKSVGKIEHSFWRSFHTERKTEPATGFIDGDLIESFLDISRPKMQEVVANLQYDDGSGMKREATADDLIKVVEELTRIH
Chain of Ikaros (Q13422 whole entry, species assumed): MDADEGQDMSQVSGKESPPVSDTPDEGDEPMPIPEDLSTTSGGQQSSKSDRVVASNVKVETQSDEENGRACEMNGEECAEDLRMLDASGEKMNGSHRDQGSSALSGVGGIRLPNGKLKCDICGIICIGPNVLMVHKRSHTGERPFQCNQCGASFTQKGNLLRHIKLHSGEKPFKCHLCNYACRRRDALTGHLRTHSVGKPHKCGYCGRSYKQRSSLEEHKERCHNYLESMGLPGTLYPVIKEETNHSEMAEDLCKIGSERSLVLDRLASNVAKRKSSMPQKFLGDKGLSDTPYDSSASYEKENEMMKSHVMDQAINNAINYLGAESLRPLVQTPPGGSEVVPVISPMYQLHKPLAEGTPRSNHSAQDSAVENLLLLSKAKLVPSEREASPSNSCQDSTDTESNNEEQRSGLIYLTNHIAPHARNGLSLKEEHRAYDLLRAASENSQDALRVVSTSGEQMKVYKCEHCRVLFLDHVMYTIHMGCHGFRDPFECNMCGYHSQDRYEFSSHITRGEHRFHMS
Chain of Ikaros (Q96SW2 whole entry, species assumed): as the sequence (Q96SW2 whole entry) above
Chain of Ikaros (Q16531 whole entry partner, species assumed): as the sequence (Q16531 whole entry partner) above

For the compound `O=C1CCC(N2C(=O)c3ccccc3C2=O)C(=O)N1` (stereo not shown) [thalidomide], the “SALL4 protein levels in CRBN wild-type human iPS cells” value in experiment [1] (indicated concentrations) is “reduced upon exposure to thalidomide in a dose dependent fashion; also recorded: dependent on thalidomide and cerelon”. For the same compound, the “SALL4 downregulation in CRBN knock-out human iPS cells” value in experiment [1] (CRISPR-mediated cereblon knockout) is reported as “completely blocked the downregulation of SALL4 induced by thalidomide”. For the same compound, the “Binding of G416A SALL4 to cereblon” value in experiment [2] (HA-tagged G416A SALL4, anti-HA pull-down) is on record as “disrupted the binding significantly”. Moreover, the “Binding of G600A SALL4 to cereblon” value in experiment [2] (HA-tagged G600A SALL4, anti-HA pull-down) is reported as “strong, compound-dependent binding to cereblon”. The “Binding of WT SALL4 to cereblon (co-purifying GST-cereblon, western blot)” value in experiment [2] (HA-tagged WT SALL4, anti-HA pull-down) is listed as “strong, compound-dependent binding to cereblon”. Also, the “Triggering the degradation of Ikaros” value in experiment [3] is “only moderately active in triggering the degradation of Ikaros”. Besides, the “SALL4 mRNA levels (ISH)” value in experiment [4] was “not altered upon thalidomide treatment”. For the same compound, in experiment [5], the “Binding of G416A SALL4 to cereblon (co-IP)” value was “disrupted cereblon binding in cells”, the “Binding of G600A SALL4 to cereblon (co-IP)” value is “able to bind cereblon” and the “Binding of wild-type SALL4 to cereblon (co-IP)” value was “able to bind cereblon”.
